Key:
Assay in all cases: biochemical
Type in all cases: biochemical
[1] = molecular target: T1, 363 human kinases (including Aurora A/B/C) (Homo sapiens, UniProt O15111); conditions: IKKa/CHUK; for remaining activity at 0.1 µM: 100 nM; for remaining activity at 0.1 µM / remaining activity at 0.5 µM: read-out: % Enzyme Activity (relative to DMSO controls)
T1 sequence (O15111 1-745): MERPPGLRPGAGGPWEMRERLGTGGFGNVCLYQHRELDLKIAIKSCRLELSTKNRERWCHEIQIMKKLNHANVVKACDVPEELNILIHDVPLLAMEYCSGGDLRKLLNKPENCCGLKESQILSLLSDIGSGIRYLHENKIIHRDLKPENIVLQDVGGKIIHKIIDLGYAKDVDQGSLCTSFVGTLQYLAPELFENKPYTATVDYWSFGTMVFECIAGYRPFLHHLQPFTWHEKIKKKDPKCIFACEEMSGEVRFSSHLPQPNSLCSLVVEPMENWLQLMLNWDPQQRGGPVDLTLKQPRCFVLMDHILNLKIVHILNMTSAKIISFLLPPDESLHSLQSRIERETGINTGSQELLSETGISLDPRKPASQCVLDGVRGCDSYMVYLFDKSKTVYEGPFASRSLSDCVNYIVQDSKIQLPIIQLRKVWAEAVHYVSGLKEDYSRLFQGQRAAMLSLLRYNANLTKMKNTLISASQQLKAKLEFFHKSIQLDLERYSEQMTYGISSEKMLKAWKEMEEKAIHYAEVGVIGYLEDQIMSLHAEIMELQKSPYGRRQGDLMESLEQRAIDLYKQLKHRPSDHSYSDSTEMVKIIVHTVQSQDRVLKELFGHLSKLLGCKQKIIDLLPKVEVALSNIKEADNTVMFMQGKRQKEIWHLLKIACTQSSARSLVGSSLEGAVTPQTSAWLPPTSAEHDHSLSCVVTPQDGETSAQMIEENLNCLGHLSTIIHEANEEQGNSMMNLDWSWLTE
Description: (§1) However, the Aurora A/B selectivity ratios derived from our in vitro and in vivo data can be compared to prioritize inhibitors.

[2] = molecular target: T2, 363 human kinases (including Aurora A/B/C) (Homo sapiens, UniProt P52333); conditions: JAK3; for remaining activity at 0.1 µM: 100 nM; for remaining activity at 0.1 µM / remaining activity at 0.5 µM: read-out: % Enzyme Activity (relative to DMSO controls)
T2 sequence (P52333 1-1124): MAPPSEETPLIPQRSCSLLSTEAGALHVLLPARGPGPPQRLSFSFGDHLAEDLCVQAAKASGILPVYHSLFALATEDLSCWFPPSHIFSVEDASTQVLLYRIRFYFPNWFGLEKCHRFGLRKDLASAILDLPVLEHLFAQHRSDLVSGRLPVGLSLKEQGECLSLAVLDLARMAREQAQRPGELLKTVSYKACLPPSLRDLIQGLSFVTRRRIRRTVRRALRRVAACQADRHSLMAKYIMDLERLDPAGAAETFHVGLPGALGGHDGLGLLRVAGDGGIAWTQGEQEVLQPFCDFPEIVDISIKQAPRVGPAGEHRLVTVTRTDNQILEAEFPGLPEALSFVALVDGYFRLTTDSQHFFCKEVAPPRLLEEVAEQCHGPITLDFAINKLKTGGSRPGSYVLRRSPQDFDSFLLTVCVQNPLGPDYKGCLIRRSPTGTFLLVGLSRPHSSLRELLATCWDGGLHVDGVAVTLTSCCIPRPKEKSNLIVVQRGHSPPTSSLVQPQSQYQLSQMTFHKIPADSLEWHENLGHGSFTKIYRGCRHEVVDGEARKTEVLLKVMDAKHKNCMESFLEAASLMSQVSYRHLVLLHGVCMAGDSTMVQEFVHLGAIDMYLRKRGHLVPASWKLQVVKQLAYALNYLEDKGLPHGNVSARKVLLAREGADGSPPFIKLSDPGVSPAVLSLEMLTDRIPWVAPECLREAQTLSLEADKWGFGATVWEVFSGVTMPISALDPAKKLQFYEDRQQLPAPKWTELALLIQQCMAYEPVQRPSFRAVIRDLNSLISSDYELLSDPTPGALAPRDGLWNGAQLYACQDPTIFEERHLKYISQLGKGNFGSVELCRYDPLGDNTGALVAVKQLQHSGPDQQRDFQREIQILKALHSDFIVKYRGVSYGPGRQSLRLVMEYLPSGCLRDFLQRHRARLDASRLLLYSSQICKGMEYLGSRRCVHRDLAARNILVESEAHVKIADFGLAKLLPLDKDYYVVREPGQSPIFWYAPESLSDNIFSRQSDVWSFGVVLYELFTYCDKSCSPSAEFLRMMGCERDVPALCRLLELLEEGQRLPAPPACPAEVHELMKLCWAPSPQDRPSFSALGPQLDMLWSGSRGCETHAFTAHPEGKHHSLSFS
Description: as §1

[3] = molecular target: T3, 363 human kinases (including Aurora A/B/C) (Homo sapiens, UniProt Q7L7X3); conditions: TAOK1; for remaining activity at 0.1 µM: 100 nM; for remaining activity at 0.1 µM / remaining activity at 0.5 µM: read-out: % Enzyme Activity (relative to DMSO controls)
T3 sequence (Q7L7X3 1-1001): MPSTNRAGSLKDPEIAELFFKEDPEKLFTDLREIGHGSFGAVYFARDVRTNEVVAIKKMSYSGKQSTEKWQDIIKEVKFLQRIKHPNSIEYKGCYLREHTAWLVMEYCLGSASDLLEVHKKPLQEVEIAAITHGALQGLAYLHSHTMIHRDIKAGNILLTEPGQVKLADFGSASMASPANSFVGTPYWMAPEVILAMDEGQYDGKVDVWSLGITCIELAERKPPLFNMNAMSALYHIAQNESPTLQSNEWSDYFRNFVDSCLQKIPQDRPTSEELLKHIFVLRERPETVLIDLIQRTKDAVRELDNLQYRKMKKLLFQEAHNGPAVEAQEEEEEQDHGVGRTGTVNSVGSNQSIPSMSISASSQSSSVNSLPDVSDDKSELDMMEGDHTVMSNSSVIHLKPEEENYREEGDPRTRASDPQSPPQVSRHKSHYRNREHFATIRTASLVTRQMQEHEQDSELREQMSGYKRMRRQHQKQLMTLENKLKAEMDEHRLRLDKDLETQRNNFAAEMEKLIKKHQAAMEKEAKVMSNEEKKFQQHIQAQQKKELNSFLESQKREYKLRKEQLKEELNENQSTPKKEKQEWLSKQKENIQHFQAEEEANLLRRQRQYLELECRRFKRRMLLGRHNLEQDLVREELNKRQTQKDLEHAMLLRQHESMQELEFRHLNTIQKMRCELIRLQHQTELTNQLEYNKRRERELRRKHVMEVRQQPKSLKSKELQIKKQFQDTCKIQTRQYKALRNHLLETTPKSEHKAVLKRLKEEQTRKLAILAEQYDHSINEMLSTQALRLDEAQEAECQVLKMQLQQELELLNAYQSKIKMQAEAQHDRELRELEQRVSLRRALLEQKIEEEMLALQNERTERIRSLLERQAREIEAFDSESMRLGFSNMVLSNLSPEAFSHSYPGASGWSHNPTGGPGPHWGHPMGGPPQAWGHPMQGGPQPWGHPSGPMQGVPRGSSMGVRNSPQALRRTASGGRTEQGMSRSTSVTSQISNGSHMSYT
Description: as §1

Compound	remaining activity at 0.1 µM [1]	remaining activity at 0.1 µM [2]	remaining activity at 0.1 µM [3]	% Enzyme Activity (relative to DMSO controls) ([1]; 500 nM)	remaining activity at 0.5 µM ([1]; 500 nM)	% Enzyme Activity (relative to DMSO controls) ([2]; 500 nM)	remaining activity at 0.5 µM ([2]; 500 nM)	% Enzyme Activity (relative to DMSO controls) ([3]; 500 nM)	remaining activity at 0.5 µM ([3]; 500 nM)
CCn1cc(-c2ccnc3[nH]c(-c4cccc(CN(C)C)c4)cc23)c(-c2ccc(NC(=O)N(C)C)cc2)n1 [GSK1070916]	126%	97.2%	96%						
O=C(c1cccc(Cl)c1F)N1CCN(Cc2cccc(Nc3nccs3)n2)CC1 [MK-8745]				107.82%	114%	84.37%	85.6%	88.72%	89.7%
O=C(O)[C@]1(Cc2cccc(Nc3nccs3)n2)CC[C@@H](Oc2cccc(Cl)c2F)CC1 [MK-5108]	118%	31.4%	89.5%		113%		6.75%		70.3%
